pIC50, pKi: −log10 of the molar value.
The compounds below were run against hPanK3 (Homo sapiens, UniProt Q9H999) (assay: Inhibition of PanK kinase activity (phosphorylation of pantothenate, purified protein)). Conditions: not given.
Type: biochemical

hPanK3, sequence (Q9H999 whole entry): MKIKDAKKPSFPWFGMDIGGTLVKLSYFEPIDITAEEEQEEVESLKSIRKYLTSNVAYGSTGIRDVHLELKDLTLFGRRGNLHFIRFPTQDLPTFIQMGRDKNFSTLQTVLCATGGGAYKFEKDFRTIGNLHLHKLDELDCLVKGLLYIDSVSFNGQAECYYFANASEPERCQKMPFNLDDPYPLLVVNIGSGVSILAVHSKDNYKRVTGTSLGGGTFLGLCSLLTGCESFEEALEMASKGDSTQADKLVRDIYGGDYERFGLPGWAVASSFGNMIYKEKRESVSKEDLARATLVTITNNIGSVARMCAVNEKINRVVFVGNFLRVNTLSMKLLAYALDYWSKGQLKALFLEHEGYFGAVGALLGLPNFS

Structure (SMILES)	pIC50
N#Cc1ccc(N2CCN(C(=O)NCc3ccco3)CC2)nc1 [Compound 25]	< 5.00
CC(C)NC(=O)N1CCN(c2ccc(C#N)cn2)CC1 [Compound 22]	< 5.00
CCCCCCCCNC(=O)N1CCN(c2ccc(C#N)cn2)CC1 [Compound 21]	< 5.00
CC(C)(C)NC(=O)N1CCN(c2ccc(C#N)cn2)CC1 [Compound 20]	< 5.00
N#Cc1ccc(N2CCN(C(=O)NC3CCCCC3)CC2)nc1 [Compound 19]	< 5.00
Cc1ccc(CNC(=O)N2CCN(c3ccc(C#N)cn3)CC2)cc1 [Compound 24]	< 5.00
CC(C)c1cc(NC(=O)N2CCN(c3ccc(C#N)cn3)CC2)on1 [Compound 27]	< 5.00

Same assay, conditions: Morrison Ki fit

Structure (SMILES)	pKi
CC(C)c1ccc(CC(=O)NCCNc2ccc(C#N)nn2)cc1 [Compound 90]	7.55
CC(C)c1ccc(OC(=O)N2CCN(c3cnc(C#N)cn3)CC2)cc1 [Compound 110]	7.47
CC(C)c1ccc(CC(=O)N[C@@H]2CN(c3ccc(C#N)nn3)C[C@H]2O)cc1F [Compound 105]	7.35
CC(C)c1ccc(CC(=O)N[C@H]2CN(c3ccc(C#N)nn3)C[C@@H]2O)cc1 [Compound 87]	7.91
CC(C)c1ccc(CC(=O)N2CCN(c3ccc(C#N)nn3)CC2)nc1 [Compound 82]	7.20
CSc1ccc(CC(=O)N2CCN(c3ccc(C#N)nn3)[C@H](C)C2)cc1 [Compound 129]	7.65
CC(C)c1ccc(CC(=O)N2CCN(c3ccc(C#N)nn3)[C@H](C)C2)cn1 [Compound 131]	8.05
CC(C)c1ccc(CC(=O)N2CCN(c3ncc(Cl)nc3N)CC2)cc1 [Compound 116]	7.90
CC(C)c1ccc(CC(=O)N[C@@H]2CN(c3ccc(C#N)nn3)C[C@@H]2O)cc1 [Compound 92]	7.39
CC(C)c1ccc(OC(=O)N2CCN(c3ccc(C#N)nn3)[C@@H](C)C2)cc1 [Compound 138]	8.12
CC(C)c1ccc(CC(=O)N[C@H]2CCN(c3ccc(C#N)nn3)C2)cn1 [Compound 106]	8.23
Cc1cc(OC(=O)N2CCN(c3ccc(C#N)nn3)CC2)ccc1C(C)C [Compound 80]	7.25
CSc1cccc(CC(=O)N2CCN(c3ccc(C#N)nn3)[C@H](C)C2)c1 [Compound 135]	7.42
CC(C)c1ccc(N(C)C(=O)N2CCN(c3ccc(C#N)nn3)CC2)cc1 [Compound 108]	7.85
CC(C)c1ccc(CC(=O)N[C@@H]2CCN(c3ccc(C#N)nn3)C2)cc1 [Compound 86]	7.58
CC(C)c1ccc(CC(=O)N2CCN(c3ccc(Cl)nn3)[C@H](C)C2)cn1 [Compound 134]	7.97
CC(C)c1ccc(CC(=O)N[C@H]2CCN(c3ccc(C#N)nn3)C2)cc1 [Compound 85]	8.15
CC(C)c1ccc(CC(=O)N2CCN(c3ccc(C#N)nn3)[C@@H](C)C2)cn1 [Compound 132]	7.90
CCC(C)c1ccc(NC(=O)N2CCN(c3ccc(C#N)nn3)CC2)cc1 (centres unmarked) [Compound 66]	8.11
CC(C)c1ccc(NC(=O)N2CCN(c3cnc(Cl)cn3)CC2)cc1 [Compound 113]	7.68
CC(C)c1ccc(CC(=O)N2CCN(c3ccc(Cl)nn3)[C@@H](C)C2)cn1 [Compound 133]	8.01
CC(C)c1ccc(CC(=O)N[C@@H]2CN(c3ccc(C#N)nn3)C[C@H]2O)c(F)c1 [Compound 107]	7.68
CC(C)c1ccc(CC(=O)N[C@H]2CN(c3ccc(C#N)nn3)C[C@@H]2O)cc1F [Compound 95]	7.29
CC(C)c1ccc(NC(=O)N[C@H]2CCN(c3ccc(C#N)nn3)C2)cc1 [Compound 88]	7.44
CC(C)c1ccc(CC(=O)N[C@@H]2CN(c3ccc(C#N)nn3)C[C@H]2O)cc1 [Compound 91]	7.46
CC(C)(C)c1ccc(C(F)(F)C(=O)N2CCN(c3ccc(C#N)nn3)CC2)cc1 [Compound 77]	7.68
CC(C)c1ccc(CC(=O)N2CC[C@@H](Nc3ccc(C#N)nn3)C2)cc1 [Compound 84]	8.04

Other lines, results leading:

pKi	Structure (SMILES)
8.30	CC(C)c1ccc(CC(=O)NC2CCN(c3ccc(C#N)nn3)CC2)cc1 [Compound 118]
8.33	CC(C)c1ccc(OC(=O)N2CCN(c3ccc(C#N)nn3)[C@H](C)C2)cc1 [Compound 139]
8.39	CC(C)c1ccc(CC(=O)N2CCN(c3cnc(Cl)cn3)CC2)s1 [Compound 122]
8.48	CC(C)c1ccc(CC(=O)N2CCN(c3ccc(C#N)nn3)CC2)s1 [Compound 119]
8.60	CC(c1ccc(CC(=O)N2CCN(c3ccc(C#N)nn3)[C@@H](C)C2)cc1)C(F)(F)F (some centres unmarked) [Compound 144]
8.62	CC(C)c1ccc(CC(=O)N2CCN(c3ccc(C#N)nn3)C(C)(C)C2)cc1 [Compound 136]
8.74	CC(C)(C)c1ccc(CC(=O)N2CCN(c3ccc(Cl)nn3)CC2)cc1 [Compound 74]
8.74	CC(C)c1ccc(OC(=O)N2CCN(c3ccc(Cl)nn3)CC2)cc1 [Compound 76]
8.77	C[C@@H]1CN(C(=O)Cc2ccc(C(C)(C)C)cc2)CCN1c1ccc(C#N)nn1 [Compound 141]
8.82	CC(c1ccc(CC(=O)N2CCN(c3ccc(C#N)nn3)[C@H](C)C2)cc1)C(F)(F)F (some centres unmarked) [Compound 145]
8.82	CC(C)c1ccc(CC(=O)N[C@H]2CCN(c3ccc(C#N)nn3)C2)c(F)c1 [Compound 100]
8.85	CC(C)c1ccc(CC(=O)N2CCN(c3ccc(C#N)nn3)C[C@H]2C)cc1 [Compound 121]
8.89	CC(C)c1ccc(CC(=O)N2CCN(c3ccc(C#N)nn3)[C@@H](C)C2)s1 [Compound 128]
8.96	CC(C)c1ccc(CC(=O)N2CCN(c3ccc(C#N)nn3)C[C@@H]2C)cc1 [Compound 124]
8.96	CC(C)c1ccc(CC(=O)N[C@H]2CCN(c3ccc(C#N)nn3)C2)cc1F [Compound 94]
9.00	C[C@H]1CN(C(=O)Cc2ccc(C(C)(C)C)cc2)CCN1c1ccc(C#N)nn1 [Compound 140]
9.01	CC(C)(C)c1ccc(CC(=O)N2CCN(c3ccc(C#N)nn3)CC2)cc1 [Compound 73]
9.19	CC(C)c1ccc(CC(=O)N2CCN(c3ccc([N+](=O)[O-])nc3)CC2)cc1 [Compound 120]
9.57	CC(C)c1ccc(CC(=O)N2C[C@@H](C)N(c3ccc(C#N)nn3)[C@@H](C)C2)cc1 [Compound 137]
9.89	CC(C)c1ccc(CC(=O)N2CCN(c3ccc(C#N)nn3)[C@H](C)C2)cc1 [Compound 123]
10.05	CC(C)c1ccc(CC(=O)N2CCN(c3ccc(C#N)nn3)[C@@H](C)C2)cc1 [Compound 126]

These compounds were tested on diabetic ob/ob mice (assay: Blood glucose in adult male diabetic ob/ob mice). Conditions: 10 mg/kg orally at 12-hr intervals, 5 doses, pantothenate-deficient chow, in 30% Captisol; non-diabetic range 120±20 mg/dL.
Type: in vivo
Procedure: Compound was administered orally at 12-hr intervals for a total of 5 doses starting at T=0 hr. Blood glucose from the tail vein was measured just prior to each administration. Compound was formulated in 30% Captisol (o); 30% Captisol only (•).

Structure (SMILES)	blood glucose level
CC(C)c1ccc(CC(=O)N2CCN(c3ccc(C#N)nn3)CC2)cc1 [6-(4-(2-(4-isopropylphenyl)acetyl)piperazin-1-yl)pyridazine-3-carbonitrile]	reduces the blood glucose level to values within the range of non-diabetic mice

Reference: patent US12552765B2, “Small molecule modulators of pantothenate kinases” (ST. JUDE CHILDREN'S RESEARCH HOSPITAL, INC., priority 2016, dated 2026)
